Consider seven molecules from ChEMBL document CHEMBL5291721, “A preclinical secondary pharmacology resource illuminates target-adverse drug reaction associations of marketed drugs” (Nat Commun, 2023).

In assay [1] the target is Beta-1 adrenergic receptor (Homo sapiens, UniProt P08588). The format is functional.
For assay [2], the target named is T1, Cannabinoid receptor 1 (Homo sapiens, UniProt P21554). The assay is classed as functional, cell-based.
Assay [3] has as its target Voltage-dependent L-type calcium channel subunit alpha-1C (Rattus norvegicus, UniProt P22002). The assay is classed as functional.
The target in assay [4] is T2, Muscarinic acetylcholine receptor M1 (Homo sapiens, UniProt P11229).
T2 sequence (P11229 whole entry): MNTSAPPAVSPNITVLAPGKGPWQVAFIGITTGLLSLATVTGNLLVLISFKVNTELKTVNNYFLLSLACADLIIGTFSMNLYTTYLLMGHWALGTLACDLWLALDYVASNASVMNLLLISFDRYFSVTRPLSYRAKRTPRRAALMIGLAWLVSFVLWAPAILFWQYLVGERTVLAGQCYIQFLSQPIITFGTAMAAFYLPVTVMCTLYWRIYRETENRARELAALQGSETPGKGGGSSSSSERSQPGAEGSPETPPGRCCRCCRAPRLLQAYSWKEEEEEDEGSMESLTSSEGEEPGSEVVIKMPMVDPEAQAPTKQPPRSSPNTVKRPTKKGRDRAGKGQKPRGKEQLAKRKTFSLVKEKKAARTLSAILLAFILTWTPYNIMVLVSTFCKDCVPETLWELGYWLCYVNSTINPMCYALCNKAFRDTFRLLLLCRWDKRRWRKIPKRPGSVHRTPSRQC
The assay is classed as functional.

For assay [5], the target named is Glutamate receptor ionotropic, NMDA 1 (Rattus norvegicus, UniProt P35439).
Assay [6] has as its target Vasopressin V2 receptor (Homo sapiens, UniProt P30518).
The target of assay [7] is Adenosine receptor A2a (Homo sapiens, UniProt P29274).
Assay [8] addresses Histamine H1 receptor (Homo sapiens, UniProt P35367).
The target in assay [9] is 3',5'-cyclic-AMP phosphodiesterase 4D (Homo sapiens, UniProt Q08499). The assay is classed as functional.
Assay [10] has as its target T3, Mu-type opioid receptor (Homo sapiens, UniProt P35372).
Assay [11] deals with Vasopressin V1a receptor (Homo sapiens, UniProt P37288).
The target of assay [12] is T4, Muscarinic acetylcholine receptor M2 (Homo sapiens, UniProt P08172).
T4 sequence (P08172 whole entry): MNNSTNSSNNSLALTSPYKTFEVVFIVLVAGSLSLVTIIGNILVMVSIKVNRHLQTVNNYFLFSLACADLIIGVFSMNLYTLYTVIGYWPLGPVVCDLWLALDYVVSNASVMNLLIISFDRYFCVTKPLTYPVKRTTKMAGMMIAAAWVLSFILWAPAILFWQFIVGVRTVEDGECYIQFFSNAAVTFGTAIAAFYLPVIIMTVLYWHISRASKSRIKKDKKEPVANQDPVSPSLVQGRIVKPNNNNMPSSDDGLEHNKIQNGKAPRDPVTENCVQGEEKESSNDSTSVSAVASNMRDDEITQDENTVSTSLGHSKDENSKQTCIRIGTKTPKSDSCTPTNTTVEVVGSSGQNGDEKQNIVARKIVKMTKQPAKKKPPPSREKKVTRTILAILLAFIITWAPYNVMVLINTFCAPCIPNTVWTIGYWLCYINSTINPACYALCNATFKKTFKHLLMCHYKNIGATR
The assay is classed as functional, cell-based.

Assay [13] addresses Growth hormone secretagogue receptor type 1 (Homo sapiens, UniProt Q92847).
Assay [14] has as its target Gamma-aminobutyric acid receptor subunit alpha-1 (Rattus norvegicus, UniProt P62813). The format is functional.
Assay [15] addresses Histamine H2 receptor (Homo sapiens, UniProt P25021). The format is functional, cell-based.
Assay [16] deals with cGMP-inhibited 3',5'-cyclic phosphodiesterase 3A (Homo sapiens, UniProt Q14432). The assay is classed as functional.
Assay [17] deals with T1, Cannabinoid receptor 1.
In assay [18] the target is Histamine H3 receptor (Homo sapiens, UniProt Q9Y5N1).
Assay [19] deals with 5-hydroxytryptamine receptor 2A (Homo sapiens, UniProt P28223). The assay is classed as functional, cell-based.
The target of assay [20] is T4, Muscarinic acetylcholine receptor M2. The assay is classed as functional, cell-based. The source holds these as a separate data set.
Assay [21] has as its target T3, Mu-type opioid receptor. The experiment in a line: biochemical. The assay is classed as functional.
Assay [22] deals with T5, 5-hydroxytryptamine receptor 1A (Homo sapiens, UniProt P08908).
T5 sequence (P08908 whole entry): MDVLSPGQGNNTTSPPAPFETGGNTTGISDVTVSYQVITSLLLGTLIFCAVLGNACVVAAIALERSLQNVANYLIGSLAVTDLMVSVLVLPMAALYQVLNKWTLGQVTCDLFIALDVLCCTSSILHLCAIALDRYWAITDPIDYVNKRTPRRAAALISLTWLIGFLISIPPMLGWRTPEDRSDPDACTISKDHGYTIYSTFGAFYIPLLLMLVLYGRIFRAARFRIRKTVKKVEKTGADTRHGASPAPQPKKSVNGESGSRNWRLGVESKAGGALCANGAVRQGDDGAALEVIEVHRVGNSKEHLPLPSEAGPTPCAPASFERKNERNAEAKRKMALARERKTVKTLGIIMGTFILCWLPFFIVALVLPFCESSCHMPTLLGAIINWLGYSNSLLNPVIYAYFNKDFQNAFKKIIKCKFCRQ
The assay is classed as functional, cell-based.
Also: assay procedure not described here.

Sequence of Beta-1 adrenergic receptor (P08588 whole entry): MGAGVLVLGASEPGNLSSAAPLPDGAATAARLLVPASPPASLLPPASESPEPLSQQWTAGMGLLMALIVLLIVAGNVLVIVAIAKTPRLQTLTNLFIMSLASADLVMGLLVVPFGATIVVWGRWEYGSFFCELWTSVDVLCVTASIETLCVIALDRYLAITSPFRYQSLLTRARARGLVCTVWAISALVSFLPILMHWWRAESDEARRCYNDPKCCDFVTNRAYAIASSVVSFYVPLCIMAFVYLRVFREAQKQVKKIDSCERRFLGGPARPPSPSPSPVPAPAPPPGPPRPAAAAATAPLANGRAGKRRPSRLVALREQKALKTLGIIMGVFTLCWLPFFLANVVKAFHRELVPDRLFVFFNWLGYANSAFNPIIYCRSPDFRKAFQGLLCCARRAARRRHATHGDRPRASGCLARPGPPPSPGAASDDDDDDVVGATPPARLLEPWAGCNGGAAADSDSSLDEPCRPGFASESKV
Sequence of 5-hydroxytryptamine receptor 2A (P28223 whole entry): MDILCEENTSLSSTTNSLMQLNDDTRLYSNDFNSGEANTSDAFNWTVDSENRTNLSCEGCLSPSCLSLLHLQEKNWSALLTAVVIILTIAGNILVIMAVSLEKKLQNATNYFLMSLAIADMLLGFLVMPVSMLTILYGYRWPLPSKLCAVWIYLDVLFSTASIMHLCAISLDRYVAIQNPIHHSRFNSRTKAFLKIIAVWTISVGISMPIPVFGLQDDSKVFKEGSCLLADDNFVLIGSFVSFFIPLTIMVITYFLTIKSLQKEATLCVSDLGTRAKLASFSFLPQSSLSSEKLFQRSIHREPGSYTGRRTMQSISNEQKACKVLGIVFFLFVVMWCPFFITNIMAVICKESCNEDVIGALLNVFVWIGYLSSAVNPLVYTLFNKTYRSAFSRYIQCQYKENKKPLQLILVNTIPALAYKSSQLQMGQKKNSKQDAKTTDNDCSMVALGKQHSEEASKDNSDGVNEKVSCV
Sequence of Vasopressin V2 receptor (P30518 whole entry): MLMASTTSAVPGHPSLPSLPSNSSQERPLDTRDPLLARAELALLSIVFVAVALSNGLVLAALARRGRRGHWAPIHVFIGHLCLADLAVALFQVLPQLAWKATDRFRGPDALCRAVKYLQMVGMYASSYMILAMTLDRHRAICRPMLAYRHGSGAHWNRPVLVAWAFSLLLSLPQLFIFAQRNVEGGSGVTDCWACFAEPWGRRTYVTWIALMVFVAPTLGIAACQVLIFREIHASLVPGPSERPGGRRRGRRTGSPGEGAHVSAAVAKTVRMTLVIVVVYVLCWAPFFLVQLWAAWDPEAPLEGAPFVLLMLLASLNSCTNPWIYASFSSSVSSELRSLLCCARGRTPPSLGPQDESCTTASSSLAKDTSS
Sequence of Histamine H3 receptor (Q9Y5N1 whole entry): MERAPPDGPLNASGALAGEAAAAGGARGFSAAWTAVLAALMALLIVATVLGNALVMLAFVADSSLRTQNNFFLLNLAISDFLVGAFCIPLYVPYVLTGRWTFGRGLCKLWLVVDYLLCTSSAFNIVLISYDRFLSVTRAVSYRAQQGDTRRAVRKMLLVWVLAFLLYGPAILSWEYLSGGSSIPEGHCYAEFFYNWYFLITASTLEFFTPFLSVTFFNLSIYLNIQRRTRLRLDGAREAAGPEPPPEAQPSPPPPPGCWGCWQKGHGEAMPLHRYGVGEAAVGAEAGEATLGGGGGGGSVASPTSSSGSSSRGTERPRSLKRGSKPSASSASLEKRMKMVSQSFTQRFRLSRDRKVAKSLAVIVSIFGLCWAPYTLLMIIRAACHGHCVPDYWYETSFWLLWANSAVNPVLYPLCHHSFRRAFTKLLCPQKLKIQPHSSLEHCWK
Sequence of Adenosine receptor A2a (P29274 whole entry): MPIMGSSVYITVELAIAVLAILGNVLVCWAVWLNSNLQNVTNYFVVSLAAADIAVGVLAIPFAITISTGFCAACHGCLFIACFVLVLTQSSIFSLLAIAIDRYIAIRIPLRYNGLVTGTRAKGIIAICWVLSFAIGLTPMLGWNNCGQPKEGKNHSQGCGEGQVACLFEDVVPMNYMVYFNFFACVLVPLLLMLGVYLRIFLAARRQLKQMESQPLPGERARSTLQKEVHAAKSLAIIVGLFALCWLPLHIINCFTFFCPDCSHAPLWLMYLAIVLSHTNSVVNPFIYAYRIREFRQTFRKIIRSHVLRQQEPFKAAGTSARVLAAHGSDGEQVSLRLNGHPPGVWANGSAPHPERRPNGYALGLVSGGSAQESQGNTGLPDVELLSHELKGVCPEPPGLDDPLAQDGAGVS
T1 sequence (P21554 whole entry): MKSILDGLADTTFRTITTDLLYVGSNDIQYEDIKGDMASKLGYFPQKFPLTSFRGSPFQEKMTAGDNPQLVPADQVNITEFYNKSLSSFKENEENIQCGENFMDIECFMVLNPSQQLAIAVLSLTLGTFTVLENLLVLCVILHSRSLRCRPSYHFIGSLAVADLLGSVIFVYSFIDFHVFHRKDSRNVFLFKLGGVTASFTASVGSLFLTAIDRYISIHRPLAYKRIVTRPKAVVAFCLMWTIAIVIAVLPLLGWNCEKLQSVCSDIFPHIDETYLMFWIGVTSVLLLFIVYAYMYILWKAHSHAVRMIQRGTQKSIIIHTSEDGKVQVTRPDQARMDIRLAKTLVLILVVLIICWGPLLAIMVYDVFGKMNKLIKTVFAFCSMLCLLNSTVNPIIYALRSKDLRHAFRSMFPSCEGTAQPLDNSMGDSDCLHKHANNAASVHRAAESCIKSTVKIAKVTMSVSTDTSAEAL
Sequence of Voltage-dependent L-type calcium channel subunit alpha-1C (P22002 whole entry): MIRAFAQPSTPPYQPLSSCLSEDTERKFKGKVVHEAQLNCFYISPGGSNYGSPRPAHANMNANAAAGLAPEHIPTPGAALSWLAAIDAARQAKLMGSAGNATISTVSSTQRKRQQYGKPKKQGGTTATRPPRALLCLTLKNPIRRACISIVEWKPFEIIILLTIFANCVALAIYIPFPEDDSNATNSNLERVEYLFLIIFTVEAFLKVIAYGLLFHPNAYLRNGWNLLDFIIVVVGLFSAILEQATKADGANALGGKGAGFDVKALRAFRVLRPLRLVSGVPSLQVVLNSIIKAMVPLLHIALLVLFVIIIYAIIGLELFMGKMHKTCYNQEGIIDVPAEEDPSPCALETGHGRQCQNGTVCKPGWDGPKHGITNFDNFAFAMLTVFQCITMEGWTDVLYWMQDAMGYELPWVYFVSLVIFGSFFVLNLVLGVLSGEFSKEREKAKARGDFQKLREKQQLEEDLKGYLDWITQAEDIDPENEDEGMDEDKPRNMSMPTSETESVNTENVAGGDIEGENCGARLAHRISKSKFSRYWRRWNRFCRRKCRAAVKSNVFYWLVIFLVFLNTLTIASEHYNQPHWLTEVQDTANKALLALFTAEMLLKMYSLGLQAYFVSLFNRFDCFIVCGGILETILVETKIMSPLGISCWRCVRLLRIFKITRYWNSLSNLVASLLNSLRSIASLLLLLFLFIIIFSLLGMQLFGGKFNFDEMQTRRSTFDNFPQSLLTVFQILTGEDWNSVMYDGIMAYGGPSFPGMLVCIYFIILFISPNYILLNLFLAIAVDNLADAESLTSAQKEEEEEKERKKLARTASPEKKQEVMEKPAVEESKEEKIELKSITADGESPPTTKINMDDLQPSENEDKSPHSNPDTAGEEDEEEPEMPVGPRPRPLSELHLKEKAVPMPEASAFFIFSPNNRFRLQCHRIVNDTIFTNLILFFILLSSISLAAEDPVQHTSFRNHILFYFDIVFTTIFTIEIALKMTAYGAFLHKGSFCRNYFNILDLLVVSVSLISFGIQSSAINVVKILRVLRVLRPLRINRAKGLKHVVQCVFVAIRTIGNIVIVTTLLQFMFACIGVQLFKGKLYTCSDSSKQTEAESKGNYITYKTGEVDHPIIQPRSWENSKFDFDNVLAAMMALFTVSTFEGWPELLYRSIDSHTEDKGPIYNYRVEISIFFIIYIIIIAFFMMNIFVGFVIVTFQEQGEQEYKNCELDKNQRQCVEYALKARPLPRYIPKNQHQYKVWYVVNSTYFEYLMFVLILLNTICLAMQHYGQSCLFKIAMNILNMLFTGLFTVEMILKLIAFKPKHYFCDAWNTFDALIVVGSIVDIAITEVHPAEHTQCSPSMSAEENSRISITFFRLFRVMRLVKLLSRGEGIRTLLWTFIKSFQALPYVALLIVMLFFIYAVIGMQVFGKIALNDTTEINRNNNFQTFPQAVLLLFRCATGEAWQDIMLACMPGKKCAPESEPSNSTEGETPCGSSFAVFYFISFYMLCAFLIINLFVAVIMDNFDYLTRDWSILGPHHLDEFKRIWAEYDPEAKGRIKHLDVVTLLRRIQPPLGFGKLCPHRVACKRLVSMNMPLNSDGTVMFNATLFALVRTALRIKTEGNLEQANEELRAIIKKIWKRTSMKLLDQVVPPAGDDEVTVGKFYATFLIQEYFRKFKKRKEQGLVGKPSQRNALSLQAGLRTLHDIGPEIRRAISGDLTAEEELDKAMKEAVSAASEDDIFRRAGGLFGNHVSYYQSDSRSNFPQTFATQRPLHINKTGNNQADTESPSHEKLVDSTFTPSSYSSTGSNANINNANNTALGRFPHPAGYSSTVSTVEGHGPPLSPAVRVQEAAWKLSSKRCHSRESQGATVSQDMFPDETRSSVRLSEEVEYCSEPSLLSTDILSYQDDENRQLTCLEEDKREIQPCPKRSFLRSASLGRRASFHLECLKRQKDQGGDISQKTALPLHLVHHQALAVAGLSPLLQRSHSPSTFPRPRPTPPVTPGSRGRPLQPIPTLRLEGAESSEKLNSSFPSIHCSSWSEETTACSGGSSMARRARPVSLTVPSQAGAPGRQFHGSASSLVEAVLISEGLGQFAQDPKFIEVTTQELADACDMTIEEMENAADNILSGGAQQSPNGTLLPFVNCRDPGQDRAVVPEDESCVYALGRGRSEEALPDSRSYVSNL

Broadly, the AC50 is the midpoint of the concentration-response curve, whichever way the signal moves. As to `COc1cc(C)c(/C=C/C(C)=C/C=C/C(C)=C/C(=O)O)c(C)c1C` [ACITRETIN], the AC50 in assay [1] is greater than 10 µM; in assay [2], greater than 30 µM; in assay [3], greater than 10 µM; in assay [4], greater than 10 µM; in [5], greater than 10 µM; in assay [6], greater than 10 µM. For the same molecule, the AC50 was greater than 10 µM in [7]; greater than 10 µM in [8]; greater than 30 µM in assay [9]; greater than 30 µM in [10]; greater than 10 µM in [11]; greater than 10 µM in assay [12]. Further, the concentration at half-maximal activity (AC50) in assay [13], in assay [14], in assay [15], in assay [16], in assay [17] and in assay [18] was greater than 10 µM throughout. For the same molecule, the AC50 in assay [19] and in assay [20] was greater than 10 µM each time.

`Clc1ccc(CCC(Cn2ccnc2)Sc2c(Cl)cccc2Cl)cc1` (stereo not given) [BUTOCONAZOLE]: the AC50 in assay [1] was greater than 30 µM; in [3], 17 µM; in assay [4], greater than 30 µM; in assay [5] it was greater than 30 µM; in assay [6], greater than 30 µM; in assay [7], greater than 30 µM. For the same molecule, the AC50 is greater than 30 µM in assay [8]; 11 µM in assay [9]; greater than 30 µM in [11]; greater than 30 µM in assay [21]; greater than 30 µM in assay [12]; greater than 30 µM in assay [13]. Also, the AC50 in assay [14], in assay [15], in [16], in assay [17], in assay [18] and in [19] was greater than 30 µM each time. Also, in assay [20], the AC50 was greater than 30 µM.

Consider `COc1ccc(CN2CCN(C(c3ccc(F)cc3)c3ccc(F)cc3)CC2)c(OC)c1OC` [LOMERIZINE], for which the concentration at half-maximal activity (AC50) in assay [1] was greater than 30 µM; in [2] it was greater than 30 µM; in assay [3], 2.4 µM; in [4] it was 0.94 µM; in assay [5], greater than 30 µM; in [6], greater than 30 µM. Also, the AC50 in [7] is greater than 30 µM; in assay [8], 4.5 µM; in assay [9], greater than 30 µM; in assay [10], 9.7 µM; in [11], greater than 30 µM; in [21], 3.3 µM. For the same molecule, the half-maximal activity concentration (AC50) in assay [12] is 24 µM; in [13] it was 27 µM; in [14], greater than 30 µM; in assay [15], greater than 30 µM; in assay [16], greater than 30 µM; in assay [18] it was greater than 30 µM. In addition, the AC50 in [19] and in assay [20] was greater than 30 µM in each case.

As to `CC(=O)[C@H]1CC[C@H]2[C@@H]3C[C@H](C)C4=CC(=O)CC[C@]4(C)[C@H]3[C@@H](O)C[C@]12C` [MEDRYSONE], the AC50 in assay [22] was greater than 10 µM; in assay [1] it was greater than 10 µM; in assay [2], greater than 30 µM; in assay [3] it was greater than 10 µM; in assay [4], greater than 10 µM; in assay [5], greater than 10 µM. The AC50 is greater than 10 µM in assay [6]; greater than 10 µM in assay [7]; greater than 10 µM in assay [8]; greater than 30 µM in [9]; greater than 30 µM in assay [10]; greater than 10 µM in assay [11]. For the same molecule, the AC50 was greater than 10 µM in assay [12]; greater than 10 µM in assay [13]; greater than 10 µM in assay [14]; greater than 10 µM in assay [15]; greater than 30 µM in assay [16]; greater than 10 µM in [19]. This molecule gave an AC50 in [20] greater than 10 µM.

Regarding `O=C(c1cc(Cc2n[nH]c(=O)c3ccccc23)ccc1F)N1CCN(C(=O)C2CC2)CC1` [OLAPARIB], the AC50 in assay [1] was greater than 30 µM; in assay [3] it was greater than 10 µM; in assay [4], greater than 10 µM; in [5], greater than 10 µM; in [6], greater than 30 µM; in assay [7] it was greater than 30 µM. Moreover, the AC50 in assay [8] is greater than 10 µM; in [9], greater than 30 µM; in assay [10], greater than 30 µM; in [11] it was greater than 30 µM; in assay [12] it was greater than 10 µM; in assay [13], greater than 30 µM. Moreover, the AC50 in assay [14] is greater than 10 µM; in assay [15], greater than 30 µM; in assay [16], 24 µM; in [17] it was greater than 10 µM; in [19], greater than 10 µM; in assay [20] it was greater than 10 µM.

Take `O=c1[nH]c2ccccc2n1CCCN1CCN(C(c2ccccc2)c2ccccc2)CC1` [OXATOMIDE]: the AC50 is greater than 30 µM in [1]; greater than 30 µM in assay [2]; 5.8 µM in assay [4]; greater than 30 µM in [5]; greater than 30 µM in [6]; greater than 30 µM in assay [7]. Moreover, the AC50 is 0.034 µM in assay [8]; greater than 30 µM in [9]; 1.2 µM in assay [10]; 22 µM in [11]; 1.8 µM in assay [21]; 6.6 µM in assay [12]. Also, the AC50 was 8.8 µM in assay [13]; greater than 30 µM in [14]; greater than 30 µM in assay [15]; greater than 30 µM in [16]; greater than 30 µM in assay [18]; greater than 30 µM in assay [19]. For the same molecule, the AC50 in assay [20] was greater than 30 µM.

As for `C=CC[N+]1([C@H]2C[C@H]3[C@@H]4CC[C@H]5C[C@H](O)[C@@H](N6CCOCC6)C[C@]5(C)[C@H]4CC[C@]3(C)[C@H]2OC(C)=O)CCCC1` [ROCURONIUM], the AC50 in assay [22], in assay [1], in assay [3], in assay [4], in [5] and in [6] was greater than 30 µM each time. The AC50 in assay [7], in [8], in assay [9], in assay [11], in assay [21] and in assay [12] was greater than 30 µM in each case. Also, the AC50 in assay [13], in assay [14], in assay [15], in assay [16], in assay [17] and in assay [18] was greater than 30 µM throughout. The AC50 in [19] and in [20] was greater than 30 µM each time.
